Format in all cases: cell-based, human
The subject of assay [1] is MDA-MB-231. Put plainly: AlamarBlue cytotoxicity assay, MDA-MB-231. The following applies: Homo sapiens, MDA-MB-231, 72 h, read-out: Cytotoxicity (IC50). The protocol:
(§1) AlamarBlue Cytotoxicity Assay
MDA-MB-231, MCF-10A and HCT116. Viable cells were counted with a hemocytometer immediately before each experiment . Experiments were done in triplicate. First, 100 μL of MDA-MB-231 cells or MCF-10A cells at the density of 50,000 cells/mL was seeded in a 96-well plate (5,000 cells/well) and then incubated at 37 °C and 5% CO2 for 24 h. The compounds were dissolved in DMSO (dimethyl sulfoxide) to make drug stocks (10 mM). The stock solutions were diluted with the complete DMEM high glucose culture medium to make a series of gradient fresh working solutions right before each test. Subsequently, the cells were treated with 100 μL of the freshly made gradient working solution in a total volume of 200 μL/well for 72 h. After that, the media were discarded and 200 μL of the fresh complete medium containing 10% of AlamarBlue (resazurin) stock solution was added to each well. The plate was then incubated at 37 °C and 5% CO2 for another 3 h. Emission of each well at 620 nm was detected by a microplate reader (BioTek Synergy H1) at excitation 580 nm. […]
Microplate Reader. The percentage of viability compared to the negative control (DMSO-treated cells) […]
(§2) was determined. […]

Assay [2] deals with IL-2 production by Jurkat T cells. Put plainly: Activation-induced IL-2 production by Jurkat T cells. Conditions: 1 h preincubation then 24 h activation. The method, then: Jurkat E6.1 (ATCC TIB-152TM) T cells were cultured in RPMI GlutamaxTM (Life Technologies),
supplemented with 10% heat-inactivated fetal calf serum (FCS) (Invitrogen) and penicillin/streptomycin
(100 U/ml, 100 µg/ml). […]
FlowJo X software. […]

For assay [3], the system named is WT HEK. Kind of assay: Alamar Blue viability, WT HEK293. The following applies: read-out: cell viability IC50. The method, then:
(§3) AlamarBlue Cytotoxicity Assay […]
HCT116 and HEK293T. Viable cells were counted using an automated cell counter (BioRad TC20) before each experiment. Experiments were performed either in quadruplicate or duplicate sets. First 100µ l of HCT116 or HEK293T cells at a density of 25,000 cells/m l was seeded in black wall, clear bottom, 96-well plates (2500 cells/well) (Viewplate-96 Perkin Elmer). HEK293 FRT Trex cells were seeded in complete medium supplemented to 1 μg/ml Doxycycline to induce expression of Sec61a constructs. Cells were then incubated at 37 °C and 5% CO2 for 24 h. The compounds were dissolved in DMSO to make drug stocks (10 mM). The stock solutions were diluted with the complete DMEM or McCoy’s 5A culture media supplemented with DMSO to make a series of gradient fresh working solutions at equal DMSO percentage immediately prior to each test. Subsequently, the cells were treated with 25 μl of the freshly made gradient in a total volume of 125 μl/well for 72 h. After that, the media were supplemented with 10% of AlamarBlue (resazurin) stock solution. The plate was then incubated at 37 °C and 5% CO2 for another 4 h. Emission of each well at 620 nm was detected by a microplate reader (Perkin Elmer EnSpire) at excitation 580 nm. The percentage of viability compared to the negative control (DMSO -treated cells) was determined. […]
A general note: The colour change of resazurin is a common sign of viable cells or microbes.

Assay [4] has as its system HEK S82P. Kind of assay: Alamar Blue viability, HEK293 expressing Sec61α S82P. The following applies: read-out: cell viability IC50. The method, then:
as §3
Compounds were diluted from a DMSO stock into culture medium as described above. Cells were treated for 96 h, then viability measured with AlamarBlue, detected using the conditions described but with a BMG Fluostar Optima Microplate Reader. The percentage of viability compared to the negative control (DMSO-treated cells) was determined. GraphPad Prism 6 software was used to make a plot of % viability versus sample […]
HCT116 and HEK293T. Viable cells were counted using an automated cell counter (BioRad TC20) before each experiment. Experiments were performed either in quadruplicate or duplicate sets. First 100µ l of HCT116 or HEK293T cells at a density of 25,000 cells/m l was seeded in black wall, clear bottom, 96-well plates (2500 cells/well) (Viewplate-96 Perkin Elmer). HEK293 FRT Trex cells were seeded in complete medium supplemented to 1 μg/ml Doxycycline to induce expression of Sec61a constructs. Cells were then incubated at 37 °C and 5% CO2 for 24 h. The compounds were dissolved in DMSO to make drug stocks (10 mM). […] Emission of each well at 620 nm was detected by a microplate reader (Perkin Elmer EnSpire) at excitation 580 nm. The percentage of viability compared to the negative control (DMSO -treated cells) was determined. […]

The subject of assay [5] is WT HCT116. Put plainly: Alamar Blue viability, parental HCT116 (96 h). Conditions: read-out: cell viability IC50. The protocol:
as §1
(§4) MDA-MB-231, MCF-10A and HCT116. Viable cells were counted with a hemocytometer immediately before each experiment . Experiments were done in triplicate. First, 100 μL of MDA-MB-231 cells or MCF-10A cells at the density of 50,000 cells/mL was seeded in a 96-well plate (5,000 cells/well) and then incubated at 37 °C and 5% CO2 for 24 h. The compounds were dissolved in DMSO (dimethyl sulfoxide) to make drug stocks (10 mM). The stock solutions were diluted with the complete DMEM high glucose culture medium to make a series of gradient fresh working solutions right before each test. Subsequently, the cells were treated with 100 μL of the freshly made gradient working solution in a total volume of 200 μL/well for 72 h. After that, the media were discarded and 200 μL of the fresh complete medium containing 10% of AlamarBlue (resazurin) stock solution was added to each well. The plate was then incubated at 37 °C and 5% CO2 for another 3 h. Emission of each well at 620 nm was detected by a microplate reader (BioTek Synergy H1) at excitation 580 nm. For HCT116 WT and mutant lines, cells were seeded at 1000 cells/ well in complete McCoys medium. […] Cells were treated for 96 h, then viability measured with AlamarBlue, detected using the conditions described but with a BMG Fluostar Optima Microplate Reader. […]
as §2

Assay [6] relates to HCT D60G. Put plainly: Alamar Blue viability, HCT116 Sec61α D60G (96 h). The protocol: as §1, §4, §2
Assay [7] deals with HepG2 cells. Kind of assay: Pulse-chase analysis of protein secretion in HepG2 cells. The following applies: for secretory proteins in cell media: HepG2, 100 nM Ipom-F or 42 nM mycolactone 13.5 h, 100 nM bortezomib 2 h. The method, then:
Pulse‐Chase Analysis of Protein Secretion in HepG2 Cells
The secretion assay was performed using a pulse–chase approach as described previously.20 HepG2 cells were treated with DMSO, 100 nM compound 8, 100 nM Ipom-F or […] mycolactone for 13.5 h before initiating the experiment, whereas pre-treatment with bortezomib 100 nM (Stratech) or 2.5 μg/ml brefeldin A were performed for 2 h and 1 h, respectively. Cells were starved in Met‐ and Cys‐free DMEM (Invitrogen) for 20 min at 37°C. Labeling was initiated by addition of fresh starvation medium containing […] [35S]Met and [35S]Cys protein labeling mix (Perkin Elmer; specific activity >1,000 Ci/mmol) for 15 min. After washing with PBS, cells were incubated in serum‐free DMEM supplemented with excess unlabeled L‐Met and L‐Cys (2 mM final concentration) for 2 h. The compounds were included throughout the starvation, pulse and chase. Secreted proteins in the media were recovered by precipitation with 13% trichloroacetic acid, washed in acetone and dissolved in 2x sample buffer. Cells were solubilized with Triton X‐100 lysis buffer (20 mM Tris, pH 7.5, 150 mM NaCl, 1% TX-100, 1 mM EDTA, 1 mM EGTA) supplemented with protease inhibitor cocktail and phenylmethylsulfonyl fluoride. Equal amounts

The structures appear in SMILES notation. Where two headings read alike, the source gives them in different places.

As to `C/C=C(\C)C(=O)O[C@H]1[C@H](OC(=O)/C=C/c2ccc(OCc3cn(CCOCCOCCOCCNC(=O)CCCC[C@@H]4SC[C@@H]5NC(=O)N[C@@H]54)nn3)cc2)[C@@H](O)[C@@H]2O[C@H]3[C@H](O[C@@H](CCCCC)CCCCCCC(=O)CCC(=O)OC[C@H]1O2)O[C@H](C)[C@H](OC(C)=O)[C@@H]3O` [compound 5], the IC50 (usually the concentration that gives 50% inhibition) in assay [1] (AlamarBlue) worked out at 29.5 nM.

Take `CC(=C\C=C\C(C)=C\[C@H](O)[C@@H](O)C[C@H](C)O)/C=C(C)/C=C/C(=O)O[C@H]1CCCC(=O)O[C@@H]([C@@H](C)C/C(C)=C/[C@@H](C)[C@H](O)C[C@@H](C)O)C/C=C(\C)C[C@@H]1C` [mycolactone, reference compound]: the IC50 in assay [2] was 6 nM; in assay [3] (72 h), 23.6 ± 0.6 nM; in assay [4] (72 h), 1160 nM; in assay [5] (WT HCT116, 96 h), 1.9 ± 0.6 nM; in assay [6] (read-out: cell viability IC50) it was above 330 nM. In addition, the “secretory proteins in cell media” value in assay [7] is “substantial reduction”.

For `C/C=C(\C)C(=O)O[C@@H]1[C@@H](O)[C@@H]2O[C@H]3[C@H](O[C@@H](CCCCC)CCCCCCC(=O)CCC(=O)OC[C@@H](O2)[C@H]1OC(=O)/C=C/c1ccccc1)O[C@H](C)[C@H](OC(C)=O)[C@@H]3O` [ipomoeassin F], the IC50 in assay [1] is 6.3 nM; in assay [2] (Homo sapiens) it was 9.9 nM; in assay [3] (Homo sapiens, HEK293, 72 h), 9.6 ± 1 nM; in assay [4] (Homo sapiens, HEK293, 72 h), above 10000 nM; in assay [5] (Homo sapiens, HCT-116, WT HCT116, 96 h) it was 40 ± 4 nM; in assay [6] (Homo sapiens, HCT-116, read-out: cell viability IC50), 88.1 ± 10.3 nM. In addition, the “global protein synthesis (total radiolabeled proteins)” value in assay [7] (HepG2, 100 nM, 13.5 h) is listed as “did not inhibit global protein synthesis”. In assay [7], the “secretory proteins in cell media” value is “substantial reduction”.

The values above are taken from paper PMC6627486, “Ipomoeassin F Binds Sec61α to Inhibit Protein Translocation” (Journal of the American Chemical Society, 2019).
